Reference: patent EP2140864A2 (H. Lundbeck A/S, priority 2001, dated 2002)

target: T1, human GAL3 receptor (Homo sapiens, UniProt O60755); test: Radioligand binding at cloned human GAL3 receptor; conditions: indolones, cloned human receptor; read-out: Ki GalR3
T1 construct: expressed in transfected cells
T1 sequence (O60755 1-368): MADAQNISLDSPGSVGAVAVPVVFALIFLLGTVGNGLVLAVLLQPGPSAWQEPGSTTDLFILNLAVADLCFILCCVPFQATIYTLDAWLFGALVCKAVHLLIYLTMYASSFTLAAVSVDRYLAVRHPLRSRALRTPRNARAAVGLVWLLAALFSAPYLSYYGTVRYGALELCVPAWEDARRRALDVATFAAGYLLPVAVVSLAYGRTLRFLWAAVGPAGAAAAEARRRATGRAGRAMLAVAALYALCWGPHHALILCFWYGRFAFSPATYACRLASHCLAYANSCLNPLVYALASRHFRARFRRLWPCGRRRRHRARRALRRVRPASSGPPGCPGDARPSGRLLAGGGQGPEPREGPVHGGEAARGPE
How it was run: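 Compound vehicle, as final assay concentration, was 3% DMSO (indolones) or 1% ethanol/0.09% polypuronic acid F-127 (pyrimidines). Binding measured on fresh or frozen membranes of stably transfected LM(tk-) mouse fibroblasts carrying cloned human GAL3, in pH 7.4 HEPES buffer; values derived by nonlinear regression.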

Ki | Compound
46 nM | O=C1/C(=N\c2ccc(Br)cc2)c2ccccc2N1c1ccsc1 [Example 269, (3Z)-3-[(4-BROMOPHENYL)IMINO]-1-(3-THIENYL)-1,3-DIHYDRO-2H-INDOL-2-ONE]
160 nM | O=C1/C(=N\c2ccc(-c3cccnc3)cc2)c2ccccc2N1c1ccccc1 [Example 306]
26 nM | O=C1/C(=N\c2ccc(F)c(F)c2)c2ccccc2N1c1ccccc1 [Example 285, (3Z)-3-[(3,4-DIFLUOROPHENYL)IMINO]-1-PHENYL-1,3-DIHYDRO-2H-INDOL-2-ONE]
242 nM | CC(C)c1cccc(/N=C2\C(=O)N(c3ccsc3)c3ccccc32)c1 [Example 295, (3Z)-3-[(3-ISOPROPYLPHENYL)IMINO]-1-(3-THIENYL)-1,3-DIHYDRO-2H-INDOL-2-ONE]
103 nM | O=C1C(=Nc2cccc(C(F)(F)F)c2)c2ccccc2N1c1ccsc1 (mixture of isomers) [Example 109, 1-(3-THIENYL)-3-{[3-(TRIFLUOROMETHYL)PHENYL]IMINO}-1,3-DIHYDRO-2H-INDOL-2-ONE]
27 nM | O=C1/C(=N\c2cc(F)cc(F)c2)c2ccccc2N1c1ccsc1 [Example 264, (3Z)-3-[(3,5-DIFLUOROPHENYL)IMINO]-1-(3-THIENYL)-1,3-DIHYDRO-2H-INDOL-2-ONE]
126 nM | O=C1/C(=N\c2cccc(C(F)(F)F)c2)c2ccccc2N1c1ccc(O)cc1 [Example 310, (3Z)-1-(4-HYDROXYPHENYL)-3-{[3-(TRIFLUOROMETHYL)PHENYL]IMINO}-1,3-DIHYDRO-2H-INDOL-2-ONE]
1180 nM | O=C1C(=Nc2cccc(C(F)(F)F)c2)c2ccccc2N1Cc1csc2ccc(Cl)cc12 [Example 111, 1-[(5-CHLORO-1-BENZOTHIEN-3-YL)METHYL]-3-{[3-(TRIFLUOROMETHYL)PHENYL]IMINO}-1,3-DIHYDRO-2H-INDOL-2-ONE]
521 nM | Cc1noc(C)c1CN1C(=O)/C(=N\c2cc(Cl)cc(Cl)c2)c2ccccc21 [Example 280]
39 nM | N#Cc1cccc(/N=C2\C(=O)N(c3ccccc3)c3ccccc32)c1 [Example 288, 3-{[(3Z)-2-OXO-1-PHENYL-1,2-DIHYDRO-3H-INDOL-3-YLIDENE]AMINO}BENZONITRILE]
41 nM | O=C1/C(=N\c2cccc(Br)c2)c2ccccc2N1c1ccccc1 [Example 307, (3Z)-3-[(3-BROMOPHENYL)IMINO]-1-PHENYL-1,3-DIHYDRO-2H-INDOL-2-ONE]
67 nM | COc1ccc2c(c1)N(c1ccccc1)C(=O)/C2=N\c1ccc(Cl)c(Cl)c1 [Example 258, (3Z)-3-[(3,4-DICHLOROPHENYL)IMINO]-6-METHOXY-1-PHENYL-1,3-DIHYDRO-2H-INDOL-2-ONE]
22 nM | O=C1/C(=N\c2ccc3c(c2)OC(F)(F)O3)c2ccccc2N1c1ccccc1 [Example 298, (3Z)-3-[(2,2-DIFLUORO-1,3-BENZODIOXOL-5-YL)IMINO]-1-PHENYL-1,3-DIHYDRO-2H-INDOL-2-ONE]
226 nM | N#CCc1ccc(/N=C2\C(=O)N(c3ccccc3)c3ccccc32)cc1 [Example 297, (4-{[(3Z)-2-OXO-1-PHENYL-1,2-DIHYDRO-3H-INDOL-3-YLIDENE]AMINO}PHENYL)ACETONITRILE]
42 nM | O=C1/C(=N\c2cccc(Cl)c2)c2ccccc2N1c1ccsc1 [Example 270, (3Z)-3-[(3-CHLOROPHENYL)IMINO]-1-(3-THIENYL)-1,3-DIHYDRO-2H-INDOL-2-ONE]
34 nM | O=C1C(=Nc2ccc(Cl)cc2)c2ccccc2N1c1ccsc1 [Example 292, (3Z)-3-[(4-CHLOROPHENTYL)IMINO]-1-(3-THIENYL)-1,3-DIHYDRO-2H-INDOL-2-ONE]

Compound | Ki
O=C1/C(=N\c2cccc(C(F)(F)F)c2)c2ccccc2N1Cc1cccnc1 [Example 277] | 198 nM
O=C1/C(=N\c2ccc(Cl)c(Cl)c2)c2ccccc2N1Cc1ccccn1 [Example 254] | 64 nM

same assay, conditions: pyrimidines, cloned human receptor; read-out: Ki GalR3

Compound | Ki
COc1cccc(Nc2cc(N(C)C)nc(N3CCN(Cc4ccccn4)CC3)n2)c1 [Example 144] | 529 nM
Cc1ccc(Nc2cc(N(C)C)nc(N3CCN(c4ccc(O)cc4)CC3)n2)cc1 [Example 116] | 479 nM
CN(C)c1cc(Nc2ccc(C(F)(F)F)cc2Cl)nc(N2CCN(c3ccccn3)CC2)n1 [Example 136] | 25 nM
CN(C)c1cc(Nc2cccc(Cl)c2)nc(N2CCN(Cc3ccccc3)CC2)n1 [Example 160] | 26 nM
CN(C)c1cc(Nc2ccc(F)c(F)c2)nc(N2CCN(c3ccccn3)CC2)n1 [Example 196] | 443 nM
CN(C)c1cc(Nc2ccc(Br)cc2)nc(Nc2ccccc2)n1 [Example 59] | 566 nM
COc1cccc(Nc2cc(N(C)C)nc(N3CCN(Cc4ccccc4OC)CC3)n2)c1 [Example 166] | 263 nM
Cc1ccc(Nc2cc(N(C)C)nc(N3CCN(c4ncccc4C#N)CC3)n2)cc1 [Example 241] | 261 nM
Cc1ccc(Nc2cc(N3CCCCC3)nc(N3Cc4cccc5cccc(c45)C3)n2)cc1 [Example 43] | 107 nM
CN(C)c1cc(Nc2cccc(C(F)(F)F)c2)nc(N2CCN(c3ccccn3)CC2)n1 [Example 125] | 75 nM
CN(C)c1cc(Nc2ccc(Cl)cc2Cl)nc(N2CCN(c3ccccn3)CC2)n1 [Example 205] | 193 nM
CN(C)c1cc(Nc2ccc3c(c2)CCC3)nc(N2CCN(c3cnccn3)CC2)n1 [Example 180] | 151 nM
CN(C)c1cc(Nc2ccc3c(c2)OCO3)nc(N2CCN(c3ccccn3)CC2)n1 [Example 118] | 508 nM
Cc1ccc(Nc2cc(N(C)C)nc(Nc3ccc(C)cc3)n2)cc1 [Example 56] | 794 nM
CN(C)c1cc(Nc2cccc(OCc3ccccc3)c2)nc(N2CCN(c3cccc(Br)c3)CC2)n1 [Example 203] | 52 nM
Cc1ccc(Nc2cc(N(C)C)nc(N(C)CCc3ccccn3)n2)cc1 [Example 161] | 114 nM
COc1ccc(OC)c(Nc2cc(N(C)C)nc(N3CCN(c4ccccn4)CC3)n2)c1 [Example 201] | 566 nM
Cc1ccc(Nc2cc(N(C)C)nc(Nc3ccccc3)n2)cc1 [Example 54] | 132 nM
CN(C)c1cc(Nc2ccc(C3CCCCC3)cc2)nc(N2CCN(c3ccccn3)CC2)n1 [Example 121] | 21 nM
CN(C)c1cc(Nc2cccc(F)c2)nc(N2CCN(c3ccccn3)CC2)n1 [Example 206] | 454 nM
Cc1ccc(Nc2cc(N(C)C)nc(N3CCN(Cc4cccs4)CC3)n2)cc1 [Example 174] | 325 nM
Cc1cc(Nc2cc(N(C)C)nc(N3CCN(c4ccccn4)CC3)n2)ccc1F [Example 200] | 311 nM
CN(C)c1cc(Nc2cccc(F)c2)nc(Nc2ccccc2)n1 [Example 57] | 360 nM

Compound | Ki
COc1ccc(CN2CCN(c3nc(Nc4ccc(C)cc4)cc(N(C)C)n3)CC2)cc1 [Example 235] | 114 nM
Cc1nc2cc(Nc3cc(N(C)C)nc(N4CCN(Cc5ccccc5)CC4)n3)ccc2s1 [Example 127] | 255 nM
CN(C)c1cc(Nc2cccc(I)c2)nc(N2CCN(c3ccccn3)CC2)n1 [Example 193] | 244 nM
CN(C)c1cc(Nc2cccc(OCc3ccccc3)c2)nc(N2CCN(Cc3ccccc3)CC2)n1 [Example 228] | 32 nM
Cc1ccc(Nc2cc(N(C)C)nc(N3CCN(c4cnccn4)CC3)n2)cc1 [Example 181] | 750 nM
Cc1ccc(Nc2cc(N(C)C)nc(N3CCN(c4ccc(Br)cn4)CC3)n2)cc1 [Example 140] | 169 nM
CCCc1ccccc1Nc1cc(N(C)C)nc(N2CCN(c3ccccn3)CC2)n1 [Example 185, N^4,N^4-dimethyl-N^6-(2-propylphenyl)-2-[4-(2-pyridinyl)-1-piperazinyl]-4,6-pyrimidinediamine] | 365 nM
Cc1ccc(Nc2cc(N(C)C)nc(N3CCN(c4ccccn4)CC3)n2)c(Cl)c1 [Example 223] | 559 nM
CN(C)c1cc(Nc2cccc(OCc3ccccc3)c2)nc(N2CCN(c3ccccn3)CC2)n1 [Example 115] | 13 nM
CN(C)c1cc(NC2C3(C)CCC(C3)C2(C)C)nc(N2CCN(Cc3ccccc3)CC2)n1 (stereo not shown) [Example 130] | 100 nM
COc1ccccc1CN1CCN(c2nc(Nc3ccc(C)cc3)cc(N(C)C)n2)CC1 [Example 175] | 56 nM
CN(C)c1cc(NC2CCc3ccccc3C2)nc(N2CCN(Cc3ccccc3)CC2)n1 (stereo not shown) [Example 173] | 117 nM
Cc1ccc(Nc2cc(N(C)C)nc(N3CCN(CC4CCCO4)CC3)n2)cc1 (stereo not shown) [Example 154] | 441 nM
COc1ccc(Cl)cc1Nc1cc(N(C)C)nc(N2CCN(c3ccccn3)CC2)n1 [Example 220] | 708 nM
COc1cccc(Nc2cc(N(C)C)nc(N3CCN(c4ccccc4C(F)(F)F)CC3)n2)c1 [Example 246] | 270 nM
CCCCCCc1ccc(Nc2cc(N(C)C)nc(N3CCN(c4ccccn4)CC3)n2)cc1 [Example 187] | 19 nM
CN(C)c1cc(Nc2ccc(C(C)(C)C)cc2)nc(Nc2ccccc2)n1 [Example 63] | 731 nM
CCCCCCCc1ccc(Nc2cc(N(C)C)nc(N3CCN(c4ccccn4)CC3)n2)cc1 [Example 189] | 26 nM
COc1cccc(CCNc2nc(Nc3ccc(C)cc3)cc(N(C)C)n2)c1 [Example 149] | 138 nM
CN(C)c1cc(Nc2ccc(F)c(F)c2F)nc(N2CCN(c3ccccn3)CC2)n1 [Example 198] | 560 nM
Cc1ccc(Nc2cc(N3CCCCC3)nc(N(C)CCc3c[nH]c4ccccc34)n2)cc1Cl [Example 16] | 33 nM
Cc1ccc(Nc2cc(N(C)C)nc(N3CCN(Cc4ccsc4)CC3)n2)cc1 [Example 238] | 331 nM
CC(C)c1cccc(Nc2cc(N(C)C)nc(N3CCN(c4ccccn4)CC3)n2)c1 [Example 191] | 75 nM
